# Patent USRE31071E, “6-Aza-3H-1,4-benzodiazepines” (Deutsche Gold- und Silber-Scheideanstalt vormals Roessler, priority 1971, dated 1982)
# Assays:
# mice = assay: rotating rod test (ataxic activity); type: in vivo; conditions: quotient of ataxic to anxiolytic activity, orally, should be as large as possible
# Description: Furthermore, there is given in this table the ataxic activity. The ratio of ataxic activity to the anxiolytic activity is of the greatest significance in using a material as an anxiolytic agent. This quotient should be as large as possible since an ataxic activity is undesirable. Ataxic activity means that the coordination of the muscular movements is disturbed--ataxicdisturbance of the muscular coordination. This means at the dosage at which a marked anxiolytic acitvity is present there should not be found a noteworthy ataxice. The toxicity, in case the data exists above the ataxic activity, is no longer important since the amount which is toxic is always considerably higher than the amount at which 50% (ED50) of the animals have an ataxic effect. The ataxic effect was measured on mice on the pattern of the rotating rod.
# In the rotating rod test the animals (mice) were firest placed on a rotating rod 15 minutes after the application of the test material and then were placed on the rotating rod every 15 minutes and the animals which fell down within 2 minutes measured positive. From the number of animals which fell down expressed in percent there were drawn time-effect curves and the areas defined by it entered as percent effect in a probability network, the dosage-effect-line prepared and the ED50 read off. The ED50 mg/kg body weight of the mouse again specifies the dosage at which 50% of all the animals show a typical ataxic effect.
# [1] = First Int. Pharmacological Meeting, Vol. 7; cited from earlier work
# [2] = in words; cited from earlier work
# [3] = J. Amer. Med. Ass. Vol. 170 (1959); cited from earlier work
smiles,measurement,setting,value
"CC1N=C(c2ccccc2)c2nc(Cl)ccc2NC1=O (racemic) [Example 4, 3-Methyl-5-phenyl-6-aza-7-chloro-1,2-dihydro-3H-1,4-benzodiazepinone-(2)]",ED50 Rotating Rod / ED50 Card. Shock,mice,4.3
"O=C1CN=C(c2ccccc2Cl)c2nc(Cl)ccc2N1 [Example 6, 5-(o-Chlorophenyl)-6-aza-7-chloro-1,2-dihydro-3H-1,4-benzodiazepinone-(2)]",ED50 Rotating Rod / ED50 Card. Shock,mice,16.5
"CN1C(=O)CN=C(c2ccccc2F)c2nc(Cl)ccc21 [Example 9, 1-Methyl-5-(o-fluorophenyl)-6-aza-7-chloro-1,2-dihydro-3H-1,4-benzodiazepinone-(2)]",ED50 Rotating Rod / ED50 Card. Shock,mice,6.1
"O=C1CN=C(c2ccccc2F)c2nc(Cl)ccc2N1 [Example 10, 5-(-Fluorophenyl)-6-aza-7-chloro-1,2-dihydro-3H-1,4-benzodiazepinone-(2)]",ED50 Rotating Rod / ED50 Card. Shock,mice,10.4
O=C(O)CCC(=O)OC1N=C(c2ccccc2Cl)c2nc(Cl)ccc2NC1=O (stereo not drawn) [Example 12],ED50 Rotating Rod / ED50 Card. Shock,mice,13.5
"O=C1Nc2ccc(Cl)nc2C(c2ccccc2Cl)=NC1O (stereo not drawn) [Example 13, 3-Hydroxy-5-o-chlorophenyl-6-aza-7-chloro-1,2-dihydro-3H-1,4-benzodiazepinone-(2)]",ED50 Rotating Rod / ED50 Card. Shock,mice,15.0
"CC(=O)OC1N=C(c2ccccc2Cl)c2nc(Cl)ccc2N(C(C)=O)C1=O (stereo not drawn) [Example 15, 1-Acetyl-3-acetoxy-5-(o-chlorophenyl)-6-aza-7-chloro-1,2-dihydro-3H-1,4-benzodiazepinone-(2)]",ED50 Rotating Rod / ED50 Card. Shock,mice,6.7
"CN1C(=O)CN=C(c2ccccc2)c2nc(Cl)ccc21 [Example 17, 1-Methyl-5-phenyl-6-aza-7-chloro-1,2-dihydro-3H-1,4-benzodiazepinone-(2)]",ED50 Rotating Rod / ED50 Card. Shock,mice,6.2
"C=CCN1C(=O)CN=C(c2ccccc2)c2nc(Cl)ccc21 [Example 18, 1-Allyl-5-phenyl-6-aza-7-chloro-1,2-dihydro-3H-1,4-benzodiazepinone-(2)]",ED50 Rotating Rod / ED50 Card. Shock,mice,8.2
O=C1CN=C(c2ccccc2)c2nc(Cl)ccc2N1CC1CC1 [Example 19],ED50 Rotating Rod / ED50 Card. Shock,mice,7.7
"CN1C(=O)CN=C(c2ccccc2Cl)c2nc(Cl)ccc21 [Example 21, 1-Methyl-5-(o-chlorophenyl)-6-aza-7-chloro-1,2-dihydro-3H-1,4-benzodiazepinone-(2)]",ED50 Rotating Rod / ED50 Card. Shock,mice,10.2
"CN1C(=S)CN=C(c2ccccc2Cl)c2nc(Cl)ccc21 [Example 24, 1-Methyl-5-(o-chlorophenyl)-6-aza-7-chloro-1,2-dihydro-3H-1,4-benzodiazepinthione-(2)]",ED50 Rotating Rod / ED50 Card. Shock,mice,12.5
CC(NN)c1ccccc1 (stereo not drawn) [alpha phenyl-ethyl hydrazine],stimulating activity / sedative action,[1],strong stimulating activity
CN(C)CCOC(C)(c1ccccc1)c1ccc(Cl)cc1 (stereo not drawn) [chlorphenoxamine],antihistamine activity,[2],antihistamine activity reduced
same,anticholinergic activity,[3],strengthening of its anticholinergic activity
